Reference: ChEMBL document CHEMBL3885861, “Open TG-GATES”

Species on record: Rattus norvegicus
Experiment: Open TG-GATES - Regimen: Single
Assay type: toxicity, organism-based, Sprague-Dawley
Set-up: regimen Single, gender Male, age 6 weeks
Conditions: in vivo, po, 0 mg/kg, route gavage, dose level Control; for APTT / Bas / Eos / Fbg / Hb / Ht / Lym / MCH / MCHC / MCV / Mono / Neu / PT / Plat / RBC / Ret / WBC: tissue Blood; for KIDNEY_L / KIDNEY_R / KIDNEY_TOTAL: tissue Kidney; for LIVER: tissue Liver; for A/G / ALP / ALT / AST / BUN / CRE / Ca / Cl / DBIL / GLC / IP / K / LDH / Na / PL / RALB / TBIL / TC / TG / TP / gamma-GTP: tissue Plasma

NC1=NC(=O)C(c2ccccc2)O1 (configuration not stated) [PEMOLINE]
TERMINAL_BW (3 h): 210.7 g | APTT (3 h): 17.2 s | Bas (3 h): 0% | Eos (3 h): 0.8% | Fbg (3 h): 266 mg/dL | Hb (3 h): 13.1 g/dL | Ht (3 h): 38.2% | Lym (3 h): 78.2% | MCH (3 h): 21.6 pg | MCHC (3 h): 34.3% | MCV (3 h): 62.9 fL | Mono (3 h): 3.8% | Neu (3 h): 16.6% | PT (3 h): 13.4 s | Plat (3 h): 113.2 x10_4/uL | RBC (3 h): 609.4 x10_4/ul | Ret (3 h): 9.5% | WBC (3 h): 87.4 x10_2/uL | KIDNEY_L (3 h): 0.9 g | KIDNEY_R (3 h): 1 g | KIDNEY_TOTAL (3 h): 1.9 g | LIVER (3 h): 9.1 g | A/G (3 h): 1 | ALP (3 h): 1454.8 IU/L | ALT (3 h): 44.8 IU/L | AST (3 h): 77 IU/L | BUN (3 h): 9.8 mg/dL | CRE (3 h): 0.2 mg/dL | Ca (3 h): 10.7 mg/dL | Cl (3 h): 104.2 meq/L | DBIL (3 h): 0.014 mg/dL | GLC (3 h): 175.2 mg/dL | IP (3 h): 8.8 mg/dL | K (3 h): 4 meq/L | LDH (3 h): 69.6 IU/L | Na (3 h): 139.8 meq/L | PL (3 h): 127 mg/dL | RALB (3 h): 2.6 g/dL | TBIL (3 h): 0.044 mg/dL | TC (3 h): 78 mg/dL | TG (3 h): 40.4 mg/dL | TP (3 h): 5.3 g/dL | gamma-GTP (3 h): 1.2 IU/L | TERMINAL_BW (6 h): 209.5 g | APTT (6 h): 17.2 s | Bas (6 h): 0% | Eos (6 h): 1% | Fbg (6 h): 286.2 mg/dL | Hb (6 h): 13.3 g/dL | Ht (6 h): 39.1% | Lym (6 h): 77.6% | MCH (6 h): 22.4 pg | MCHC (6 h): 34.1% | MCV (6 h): 65.9 fL | Mono (6 h): 3% | Neu (6 h): 18% | PT (6 h): 13.2 s | Plat (6 h): 117 x10_4/uL | RBC (6 h): 594.6 x10_4/ul | Ret (6 h): 9.1% | WBC (6 h): 88.4 x10_2/uL | KIDNEY_L (6 h): 0.9 g | KIDNEY_R (6 h): 0.9 g | KIDNEY_TOTAL (6 h): 1.8 g | LIVER (6 h): 8.8 g | A/G (6 h): 1 | ALP (6 h): 1338 IU/L | ALT (6 h): 41.2 IU/L | AST (6 h): 72.8 IU/L | BUN (6 h): 8.2 mg/dL | CRE (6 h): 0.2 mg/dL | Ca (6 h): 10.6 mg/dL | Cl (6 h): 104.4 meq/L | DBIL (6 h): 0.01 mg/dL | GLC (6 h): 173.8 mg/dL | IP (6 h): 9.4 mg/dL | K (6 h): 3.9 meq/L | LDH (6 h): 57.6 IU/L | Na (6 h): 140.4 meq/L | PL (6 h): 138.6 mg/dL | RALB (6 h): 2.6 g/dL | TBIL (6 h): 0.038 mg/dL | TC (6 h): 84.2 mg/dL | TG (6 h): 46.8 mg/dL | TP (6 h): 5.3 g/dL | gamma-GTP (6 h): 1.2 IU/L | TERMINAL_BW (9 h): 210.1 g | APTT (9 h): 17.2 s | Bas (9 h): 0% | Eos (9 h): 1% | Fbg (9 h): 293.8 mg/dL | Hb (9 h): 12.8 g/dL | Ht (9 h): 37.5% | Lym (9 h): 75.4% | MCH (9 h): 21.5 pg | MCHC (9 h): 34.2% | MCV (9 h): 62.8 fL | Mono (9 h): 3.2% | Neu (9 h): 20.2% | PT (9 h): 13.3 s | Plat (9 h): 127.3 x10_4/uL | RBC (9 h): 598.8 x10_4/ul | Ret (9 h): 9.5% | WBC (9 h): 89 x10_2/uL | KIDNEY_L (9 h): 0.9 g | KIDNEY_R (9 h): 0.9 g | KIDNEY_TOTAL (9 h): 1.7 g | LIVER (9 h): 8.1 g | A/G (9 h): 1 | ALP (9 h): 1391.4 IU/L | ALT (9 h): 41.6 IU/L | AST (9 h): 74.8 IU/L | BUN (9 h): 8.2 mg/dL | CRE (9 h): 0.2 mg/dL | Ca (9 h): 10.3 mg/dL | Cl (9 h): 104.4 meq/L | DBIL (9 h): 0.01 mg/dL | GLC (9 h): 168.8 mg/dL | IP (9 h): 10.7 mg/dL | K (9 h): 3.8 meq/L | LDH (9 h): 53.8 IU/L | Na (9 h): 140.8 meq/L | PL (9 h): 121.6 mg/dL | RALB (9 h): 2.7 g/dL | TBIL (9 h): 0.04 mg/dL | TC (9 h): 74.2 mg/dL | TG (9 h): 27.6 mg/dL | TP (9 h): 5.3 g/dL | gamma-GTP (9 h): 1.6 IU/L | TERMINAL_BW (24 h): 216.7 g | APTT (24 h): 17.2 s | Bas (24 h): 0% | Eos (24 h): 1% | Fbg (24 h): 274.6 mg/dL | Hb (24 h): 12.8 g/dL | Ht (24 h): 37.7% | Lym (24 h): 74.2% | MCH (24 h): 21.8 pg | MCHC (24 h): 34% | MCV (24 h): 64.2 fL | Mono (24 h): 3.8% | Neu (24 h): 20.4% | PT (24 h): 13 s | Plat (24 h): 114.9 x10_4/uL | RBC (24 h): 588.4 x10_4/ul | Ret (24 h): 8.8% | WBC (24 h): 92.6 x10_2/uL | KIDNEY_L (24 h): 0.9 g | KIDNEY_R (24 h): 0.9 g | KIDNEY_TOTAL (24 h): 1.9 g | LIVER (24 h): 9.9 g | A/G (24 h): 1 | ALP (24 h): 1629.4 IU/L | ALT (24 h): 50.4 IU/L | AST (24 h): 79 IU/L | BUN (24 h): 15 mg/dL | CRE (24 h): 0.2 mg/dL | Ca (24 h): 10.7 mg/dL | Cl (24 h): 105 meq/L | DBIL (24 h): 0.018 mg/dL | GLC (24 h): 174.6 mg/dL | IP (24 h): 8.2 mg/dL | K (24 h): 4 meq/L | LDH (24 h): 58.8 IU/L | Na (24 h): 141 meq/L | PL (24 h): 144.6 mg/dL | RALB (24 h): 2.7 g/dL | TBIL (24 h): 0.032 mg/dL | TC (24 h): 82.6 mg/dL | TG (24 h): 89 mg/dL | TP (24 h): 5.4 g/dL | gamma-GTP (24 h): 1 IU/L
